Experimental data: publication PMC2748117 (Journal of medicinal chemistry, 2008)

How the values were obtained:
human RFC = assay: Inhibition of RFC-mediated [3H]MTX uptake in PC43-10 cells; assay type: cell-based; conditions: unlabeled compound 10 µM, 0.5 µM [3H]MTX, 2 min, 37°C
KB cells [1] = assay: Colony formation and reversibility assay with KB cells; conditions: 0.1 to 100 nM drug, 10 days
KB cells [2] = assay: Growth inhibition of KB tumor cells, with folate/nucleoside/AICA protection; assay type: cell-based, human
CCRF-CEM leukemia cell = conditions: supraphysiologic folate; protected by hypoxanthine, not thymidine; ref [22], [23]; cited from earlier work
[3] = system: human folylpolyglutamate synthetase; conditions: ref [23]; cited from earlier work
human DHFR = conditions: ref [22], [23]; cited from earlier work
human TS = conditions: ref [22], [23]; cited from earlier work
KB cells [4] = assay: Apoptosis assay, Annexin V-FITC flow cytometry; assay type: cell-based, human; conditions: 1 µM, 24 h, Annexin V positive cells

Nc1nc(=O)c2nc(CNc3ccc(C(=O)N[C@@H](CCC(=O)O)C(=O)O)cc3)cnc2[nH]1 [folic acid]
Inhibition of [3H]MTX uptake (human RFC): < 20%

Nc1nc2[nH]c(CCCCc3ccc(C(=O)N[C@@H](CCC(=O)O)C(=O)O)cc3)cc2c(=O)[nH]1 [Compound 3, N-{4-[4-(2-Amino-4-oxo-4,7-dihydro-3H-pyrrolo[2,3-d]pyrimidin-6-yl)butyl]benzoyl}-L-glutamic Acid]
Inhibition of colony formation, continuous exposure (KB cells [1]): more potent inhibitors than either compound 4 or MTX | Increase of IC50 between 2 nM and 20 nM LCV (KB cells [2]; KB cells, folate-free media, 20 nM versus 2 nM leucovorin): approximately 3 fold | Increase of IC50 at 40 nM LCV (KB cells [2]; KB cells, folate-free media, 40 nM versus 2 nM leucovorin): ~6 fold | Inhibition of CCRF-CEM leukemia cell growth (CCRF-CEM leukemia cell): modest inhibitors | Substrate activity for polyglutamylation [3]: excellent substrates | Inhibition of purified human DHFR (human DHFR): poor inhibitors | Inhibition of purified human TS (human TS): poor inhibitors

Nc1nc2[nH]c(CCCc3ccc(C(=O)N[C@@H](CCC(=O)O)C(=O)O)cc3)cc2c(=O)[nH]1 [Compound 2]
Inhibition of colony formation, continuous exposure (KB cells [1]): more potent inhibitors than either compound 4 or MTX | Effect of thymidine on growth inhibitory activity toward KB cells (KB cells [2]; 10 µM thymidine): no effect | Effect of adenosine on growth inhibition of KB cells (KB cells [2]; 60 µM adenosine): completely reversed | Protection by AICA from growth inhibitory effects in KB cells (KB cells [2]; 192 µM AICA): completely protected | Inhibition of CCRF-CEM leukemia cell growth (CCRF-CEM leukemia cell): modest inhibitors | Substrate activity for polyglutamylation [3]: excellent substrates | Inhibition of purified human DHFR (human DHFR): poor inhibitors | Inhibition of purified human TS (human TS): poor inhibitors

COc1cccc2c1C(=O)c1c(O)c3c(c(O)c1C2=O)C[C@@](O)(C(C)=O)C[C@@H]3O[C@H]1C[C@H](N)[C@H](O)[C@H](C)O1 [daunorubicin]
Apoptosis level relative to the antifolate drugs (KB cells [4]): 4 factor
